Reference: patent US20100273876A1, “ANTIBACTERIAL FORMULATION COMPRISING A DIALKYL SULPHOSUCCINATE AND A CARBANILIDE ANTIBACTERIAL AGENT” (priority 2007, published 2010)

Assays:
C. jeikeium NCTC 11915 = experiment: (S)DDA disc diffusion; type: cell-based, Corynebacterium jeikeium; settings: for DDA: 200 μg per disc
Procedure: (§1) Several Corynebacterium test species were also used in this study, namely C. mucifaciens ATCC 700355, C. striatum NCTC 764, C. xerosis NCTC 11861 and C. jeikeium NCTC 11915. These Gram-positive pathogens are closely related to organisms (aerobic diphtheroids of the genus Corynebacterium) that cause body odour. C. mucifaciens and C. striatum were cultured and maintained on Mueller-Hinton Medium (agar and broth) and were incubated aerobically at 37° C. for 24 hours. C. xerosis and C. jeikeium were cultured and maintained on Mueller-Hinton Medium containing 5% (v/v) lysed horse blood (agar and broth) and were incubated aerobically at 37° C. for 72 hours. A sterile paper disc was impregnated with a sample of the test compound in a suitable solvent and 30 minutes allowed for the solvents to evaporate (where possible). The disc was then placed on an agar plate onto which the test micro-organism had been inoculated. The plate was then incubated under the conditions described above, following which it was examined visually for signs of microbial growth. If the test compound had antimicrobial activity, a circular zone of no growth would be obtained around the disc. The diameter of this zone of “inhibition” was measured using a ProtoCOL™ automated zone sizer (Synbiosis, Cambridge, UK). In general, a greater diameter and/or area of the zone of inhibition indicates a greater antimicrobial activity in the relevant test compound, although other factors such as test compound mobility through the agar gel may also influence the result. Two test a compounds A and B were placed on a single paper disc and the above described DDA procedure repeated. An increase in diameter of the zone of inhibition, compared to the greater of the zone diameters for the two compounds individually, was taken to indicate potential antimicrobial synergy. In practical terms, an increase of greater than 5 mm could be treated as significant. The activities of DOSS and TCC were determined, using (S)DDAs, against the test organisms C. mucifaciens ATCC 700355, C. striatum NCTC 764, C. xerosis NCTC 11861 and C. jeikeium NCTC 11915. 200 μg of the DOSS and/or the TCC were loaded onto each disc. All the experiments were conducted in triplicate.

C. striatum NCTC 764 = experiment: (S)DDA disc diffusion; type: cell-based, Corynebacterium striatum; settings: for DDA: 200 μg per disc
Procedure: as §1

C. xerosis NCTC 11861 = experiment: (S)DDA disc diffusion; type: cell-based, Corynebacterium xerosis; settings: for DDA: 200 μg per disc
Procedure: as §1

P. acnes NCTC 737 = experiment: Well diffusion assay; type: cell-based, Propionibacterium acnes; settings: gel (Solutol HS 15, ethanol, hydroxyethyl cellulose, water) with 5% w/w DOSS and/or 0.2% w/w TCC, diluted 1:2 with placebo gel
Procedure: The propionibacteria were cultured and maintained on Wilkins-Chalgren Anaerobe Medium (agar and broth) at pH 6.0; all cultures were incubated anaerobically at 37° C. for 72 hours. A hole with a diameter of 8 mm was bored into the centre of an agar plate inoculated (swabbed) with the test-microorganism using a sterile “cork” borer (size No. 4). A volume (100 μl unless stated otherwise) of the test compound(s), either formulated or in a suitable solvent, was then placed into the bored hole. The plate was incubated under the conditions described above, following which it was examined visually for signs of microbial growth. If the test compound had antimicrobial activity, a circular zone of no growth would be obtained around the bored hole. The diameter of this zone of “inhibition” was measured using a ProtoCOL™ automated zone sizer (Synbiosis, Cambridge, UK). In general, a greater diameter and/or area of the zone of inhibition indicates a greater antimicrobial activity in the relevant test compound, although other factors such as test compound mobility through the agar gel, and the extent to which a compound is released from a formulation, may also influence the result.

Strep. mutans ATCC 25175 = experiment: (S)DDA disc diffusion; type: cell-based, Streptococcus mutans
Procedure: The S. mutans was cultured and maintained on Wilkins-Chalgren Anaerobe Medium (agar and broth) at pH 7.0 supplemented with 1 g/L glucose; all cultures were incubated at 37° C. for 48 h in an atmosphere containing 5% CO2.
(§2) A sterile paper disc was impregnated with a sample of the test compound in a suitable solvent and 30 minutes allowed for the solvents to evaporate (where possible). The disc was then placed on an agar plate onto which the test micro-organism had been inoculated. The plate was then incubated under the conditions described above, following which it was examined visually for signs of microbial growth. If the test compound had antimicrobial activity, a circular zone of no growth would be obtained around the disc. The diameter of this zone of “inhibition” was measured using a ProtoCOL™ automated zone sizer (Synbiosis, Cambridge, UK). In general, a greater diameter and/or area of the zone of inhibition indicates a greater antimicrobial activity in the relevant test compound, although other factors such as test compound mobility through the agar gel may also influence the result.
(§3) Two test a compounds A and B were placed on a single paper disc and the above described DDA procedure repeated. An increase in diameter of the zone of inhibition, compared to the greater of the zone diameters for the two compounds individually, was taken to indicate potential antimicrobial synergy. In practical terms, an increase of greater than 5 mm could be treated as significant.
(§4) For the (S)DDA experiments; 200 μg of the DOS salts and/or the TCC were loaded onto each disc for Por. gingivalis experiments. For the Strep. mutans experiments, 200 μg of the TCC and 50 μg of DOSS were used on each disc. All the experiments were conducted in triplicate.

B. cereus ATCC 11778 = experiment: (S)DDA disc diffusion; type: cell-based, Bacillus cereus; settings: 200 μg per disc
Procedure: as §2
(§5) Two test a compounds A and B were placed on a single paper disc and the above described DDA procedure repeated. […]
(§6) The activities of DOSS and TCC were determined, using (S)DDAs, against a panel of further test micro-organisms, namely B. cereus ATCC 11778, Bact. fragilis ATCC 25285, Clost. difficile […] and E. faecalis ATCC 29212. […]

[1] = tested on: Bact. fragilis ATCC 25285; experiment: (S)DDA disc diffusion; type: cell-based, Bacteroides fragilis; settings: 200 μg per disc
Procedure: as §2, §5, §6

[2] = tested on: Por. gingivalis NCTC 11834; experiment: (S)DDA disc diffusion; type: cell-based, Porphyromonas gingivalis; settings: for DDA: 200 μg per disc
Procedure: The P. gingivalis strains were cultured and maintained on Wilkins-Chalgren Anaerobe Medium (agar and broth) at pH 7.0; all cultures were incubated anaerobically at 37° C. for 5-7 days.
as §2, §3, §4

[3] = 200 μg DOSS + 200 μg TCC on one disc
[4] = 200 μg TCC or 50 μg DOSS per disc

Compound	DDA (C. jeikeium NCTC 11915) [mm]	DDA (C. striatum NCTC 764) [mm]	DDA (C. xerosis NCTC 11861) [mm]	(S)DDA (P. acnes NCTC 737) [mm]	DDA (Strep. mutans ATCC 25175; [4]) [mm]	DDA (B. cereus ATCC 11778) [mm]	DDA [1] [mm]	DDA [2] [mm]	further results
dioctyl sodium sulphosuccinate [DOSS]	0.0	19.57	0.0	42.40	24.1	18.10	19.74	51.13	SDDA area increase (C. jeikeium NCTC 11915): ∞; SDDA increase (C. jeikeium NCTC 11915): 13.81 mm; SDDA with TCC (C. jeikeium NCTC 11915; [3]): 13.81 mm; SDDA area increase (C. striatum NCTC 764): 70.79%; SDDA increase (C. striatum NCTC 764): 6.0 mm; SDDA with TCC (C. striatum NCTC 764; [3]): 25.57 mm; SDDA area increase (C. xerosis NCTC 11861): 145.4%; SDDA increase (C. xerosis NCTC 11861): 6.6 mm; SDDA with TCC (C. xerosis NCTC 11861; [3]): 18.25 mm; SDDA area increase (Strep. mutans ATCC 25175): 42.61%; SDDA increase (Strep. mutans ATCC 25175): 4.68 mm; SDDA with TCC (Strep. mutans ATCC 25175; 50 μg DOSS + 200 μg TCC on one disc): 28.78 mm; DDA (Strep. mutans ATCC 25175; 200 μg per disc): 40.25 mm; SDDA area increase [2]: 54.34%; SDDA increase [2]: 12.39 mm; SDDA with TCC ([2]; 200 μg DOS salt + 200 μg TCC on one disc): 63.52 mm
O=C(Nc1ccc(Cl)cc1)Nc1ccc(Cl)c(Cl)c1 [TCC, N-(4-chlorophenyl)-N′-(3,4-dichlorophenyl) urea]	0.0	14.08	11.65	0	11.95	12.96	14.71	23.73	
